Source: patent US20250223559A1, “AXIOLOID: A STEM CELL-BASED MODEL OF HUMAN AXIAL DEVELOPMENT” (KYOTO UNIVERSITY, priority 2022, published 2025)

Test system: human Axioloids
Experiment: Immunofluorescence and HCR in situ expression patterns in Axioloids
Format: cell-based
Method: Human Axioloid samples were washed twice with 0.1% BSA (Nacalai) in PBS (Takara), fixed with 4% paraformaldehyde (PFA) for 20 minutes at room temperature and then washed again twice with 0.1% BSA in PBS. Samples were permeabilized in 0.2% Triton X-100 (Nacalai) in PBS for 15 minutes at room temperature and blocked in 5% BSA in PBS for 1 hour at room temperature. Axioloid samples were stained with primary antibodies diluted in 0.5% BSA in PBST (1% Tween-20 (Nacalai) in PBS) for overnight (12-16 hours) at 4° C. Primary antibodies used in this study were: goat anti-TBXT (TBXT) (1:500, R&D Systems), mouse anti-Fibronectin (1:10, DSHB), mouse anti-Laminin (γ1) (1:10, DSHB), rabbit anti-MEOX1 (1:500, ATLAS), mouse anti-N-Cadherin (1:200, BD Biosciences), mouse anti-PKCζ (1:100, Santa Cruz), rabbit anti-SOX2 (1:400, Cell Signaling), and goat anti-TBX6 (1:500, R&D Systems). Samples were then washed twice with PBST and stained with secondary antibodies and Alexa Fluor 647 conjugated Phalloidin (Invitrogen) diluted in 0.5% BSA in PBST for 3 hours at room temperature, washed twice with PBST and counterstained with DAPI for 5 min at room temperature. […]

CC1=C(/C=C/C(C)=C/C=C/C(C)=C/C=O)C(C)(C)CCC1 [RAL, all trans-Retinal]
expression gradients of FGF8 and WNT3a (HCR) (MG+RAL): still showed clear expression gradients of FGF8 and WNT3a
protein and gene expression patterns (TBXT, MEOX1, UNCX, TBX18) (MG-embedded, RA or RAL treated): largely unchanged or even improved
